# Results published in US8563602B2, “Method of improving animal tissue quality by supplementing the animal diet with oleic acid and selected tocols” (E.I. du Pont de Nemours and Co., priority 2004, dated 2013).
# Marks after values point to notes of the source that are not given here.
# Assays:
# swine [1] = experiment: 2003 swine feed test: ground pork discoloration on simulated retail display; type: in vivo; settings: recalculated from Table 8: oleic acid level High or tocotrienol addition 225 ppm
# Excerpt: (§1) Applicants assessed the effects of supplementing the animal diet with oleic acid and tocotrienol on pork meat quality in an experiment in which data from pigs fed one of four dietary treatments were compared. Seventy-two barrows (approximately 20 kg) were randomly placed in pens with water and feed provided ad libitum at the Pioneer Livestock Nutrition Center (PLNC) in Polk City, Iowa. Ad libitum swine feeding continued for 49 days (through Mar. 4, 2003) until the average weight reached 32 kg. A uniform group of 64 pigs was selected, and the pigs were randomly assigned to each of four treatments with 16 experimental units (individually housed pigs) per dietary treatment.
# (§2) On Apr. 22, 2003 (Day 1 of the feed test) the feeders were emptied and the dietary treatments were commenced and continued until Jul. 14, 2003 (Day 83). Dietary treatments consisted of two levels of oleic acid (normal and high) with or without tocotrienol (0 or 225 ppm), as summarized below:
# (§3) Samples of ground pork were packaged in PVC wrap and kept on simulated retail display for seven days. During that time trained panelists made a subjective determination of the overall color score and percent discoloration of the ground pork.
# Percent discoloration was also determined subjectively. In the table that follows, a higher number indicates a greater percent discoloration: […]
# swine [2] = experiment: 2003 swine feed test: ground pork visual color score on simulated retail display; type: in vivo; settings: recalculated from Table 6: oleic acid level High or tocotrienol addition 225 ppm
# Excerpt: as §1, §2, §3
# Overall color was graded on a scale of 1.0 to 5.0 as follows: 1.0=bright grayish-pink or reddish-pink (acceptable), 2.0=grayish-pink or reddish-pink (acceptable), 3.0=slightly dark pink/red/pink/tan(acceptable), 3.5=threshold of retail acceptability, 4.0=moderately tan/pinkish-red (unacceptable), and 5.0=dark tan or dark pinkish-red (unacceptable).
# swine [3] = experiment: 2003 swine feed test: belly adipose tissue fatty acid composition and iodine value; type: in vivo; settings: recalculated from Table 4: oleic acid level High or tocotrienol addition 225 ppm
# Excerpt: as §1, §2
# (§4) In the normal or control (CO) diet, the total dietary content of oil was 5.5 wt % of the feed. The oil was a typical corn oil having an oleic acid content of 29.6 wt % of the fatty acid fraction. In the high-oleic acid (HO) diet, the total dietary content of oil was still 5.5 wt %, but the oil was high-oleic sunflower oil with an oleic acid content of 80.2 wt % of the fatty acid fraction. The high oleic sunflower oil was purchased from Cargill, Inc. All four experimental diets were formulated with soybean meal and corn flaking grits. The latter, being largely devoid of oil, were used in conjunction with the corn and high-oleic vegetable oils to achieve the desired dietary fatty acid content.
# The tocotrienol used to supplement the (TT) and the (HO+TT) diets was obtained commercially from Fuji Chemical Industries (U.S.A.) Inc. of Robbinsville, N.J., and contained 7.5% alpha-, 12.3% gamma- and 3.0% delta-tocotrienol (a total tocotrienol content of 22.8%), as well as 7.2% alpha-tocopherol.
# The fatty acid composition and iodine values in the pork belly adipose tissue was measured.
# swine [4] = experiment: 2003 swine feed test: TBARS content of uncooked and cooked ground pork; type: in vivo; settings: recalculated from Table 10: oleic acid level High or tocotrienol addition 225 ppm
# Excerpt: as §1, §2
# […]. Cooked ground pork was measured for TBARS concentration at 0 hours and 24 hours after cooking.
# swine [5] = experiment: 2003 swine feed test: belly thickness and flex; type: in vivo; settings: recalculated from Table 2: oleic acid level High or tocotrienol addition 225 ppm
# Excerpt: as §1, §2
# as §4, with “content. […]” for “content.”
# The pigs were slaughtered at an average weight of 120 kg on Jul. […] Following a 24 hour chill period, the carcasses were transferred to the University of Missouri processing lab, where weight yields were recorded and meat tissue was evaluated.
# The right pork carcass side was fabricated into primal and sub-primal cuts and the bellies were evaluated for thickness, firmness and fatty acid profile.
# steers = experiment: 2004 cattle feed test: uncooked ribeye steak discoloration; type: in vivo; settings: recalculated from Table 16: oleic acid level High or tocotrienol addition 150 ppm
# Excerpt: Applicants assessed the effects of supplementing the animal diet with oleic acid and tocotrienol on beef quality in an experiment in which data from steers fed one of four dietary treatments were compared. The steers were blocked by weight (heavy or light) and assigned to eight outdoor group pens with five steers per pen. Pens were randomly assigned within each of the two weight blocks to four dietary treatments: (1) simulated oil-rich corn grain (coarse corn grits with corn oil added as 6% of the weight of the grits plus oil) (CO); (2) simulated oil-rich corn grain (coarse corn grits with a similar level of corn oil) with supplemental tocotrienol (CO+TT), (3) simulated high oleic acid corn grain (coarse corn grits with high oleic sunflower oil added as 6% of the weight of the grits plus oil) (HO); and (4) simulated high oleic acid corn grain (coarse corn grits with high oleic sunflower oil added as 6% of the weight of the grits plus oil) with supplemental tocotrienol (HO+TT); as summarized below:
# The steers were fed their respective dietary supplements for 133 days starting Apr. 12, 2004 and ending Aug. 23, 2004. The cattle were loaded on Aug. 24, 2004 and transported to Emporia, Kans. for harvest at the IBP packing plant. Steaks and ground beef samples were evaluated for, among other things, color, shelf life (as measured by percent discoloration over time) and rancidity (as measured by TBARS concentration over time).
# Ribeye steaks utilized for color evaluation were placed onto 17S foam trays with meat, fish and poultry pads (Dri-Loc AC-50) and wrapped with polyvinyl chloride (PVC) film. The steaks were placed under simulated retail display at 34+/−3 degree F. in open top cases programmed to defrost twice daily for seven days. During that time trained panelists made subjective determinations of the overall color score and percent discoloration of the ribeye steaks. […]
# Percent discoloration was also determined subjectively. […]
# [6] = In vitro addition of gamma-tocopherol to ground pork: TBARS of cooked patties; settings: GT 100 ppm added in vitro to raw ground pork, HO = pork from swine fed high oleic diet
# Procedure: Applicants assessed the effects of in vitro addition of gamma-tocopherol to ground pork from swine fed a diet supplemented with oleic acid in order to evaluate gamma tocopherol's value as an animal feed supplement when used in conjunction with oleic acid. Gamma-tocopherol was added to the raw (uncooked) ground pork from swine whose diet was not supplemented with oleic acid and swine whose diet was supplemented with oleic acid. Ground pork from pigs fed the respective treatments were formed into patties, cooked and refrigerated for two days in plastic pouches. Samples of the cooked patties were then submitted for TBARS (thiobarbituric acid reactive substances) determination at 0 hours and 24 hours following refrigeration.
compound,measurement,setting,value
"CCCCCCCC/C=C\CCCCCCCC(=O)O [Oleic Acid, oleic acid]",Ground pork discoloration,swine [1]; Day 3,2.41
same,Ground pork discoloration,swine [1]; Day 4,2.84
same,Ground pork discoloration,swine [1]; Day 5,4.64
same,Ground pork visual color score,swine [2]; Day 3,1.81
same,Ground pork visual color score,swine [2]; Day 4,2.67
same,Ground pork visual color score,swine [2]; Day 5,4.38
same,Iodine Value (IV),swine [3],63.7^b
same,Monounsaturated Fatty Acid (MUFA),swine [3],55.55^b
same,Polyunsaturated Fatty Acids (PUFA),swine [3],9.67^b
same,Ground pork oxidation (TBARS),"swine [4]; cooked, 0 hours",0.69^b mg malonaldehyde/kg sample
same,Ground pork oxidation (TBARS),"swine [4]; cooked, 24 hours",1.73^b mg malonaldehyde/kg sample
same,Ground pork oxidation (TBARS),"swine [4]; uncooked, Day 0",0.28 mg malonaldehyde/kg sample
same,Ground pork oxidation (TBARS),"swine [4]; uncooked, Day 4",0.34 mg malonaldehyde/kg sample
same,Ground pork oxidation (TBARS),"swine [4]; uncooked, Day 7",0.41 mg malonaldehyde/kg sample
same,Belly thickness,swine [5],35.6 mm
same,Lateral flex,swine [5],11.0^b
same,Vertical flex,swine [5],18.7
same,Uncooked ribeye steak discoloration,steers; Day 3,1.4
same,Uncooked ribeye steak discoloration,steers; Day 5,1.1^b
same,Uncooked ribeye steak discoloration,steers; Day 7,1.6
"Cc1c(O)cc2c(c1C)O[C@](C)(CCC[C@H](C)CCC[C@H](C)CCCC(C)C)CC2 [GT, gamma-tocopherol]",TBARS content of cooked ground pork patties,[6]; 0 hours following refrigeration,0.746 mg malonaldehyde/kg sample
same,TBARS content of cooked ground pork patties,[6]; 24 hours following refrigeration,1.24 mg malonaldehyde/kg sample
